Drawing on patent publication US20060148799A1, “Substituted p-phenyl carbamates” (Novo Nordisk A/S, priority 2003, published 2006), this text covers activity for three compounds.

The target in the experiment is T1, Hormone-sensitive lipase (HSL) (Homo sapiens, UniProt Q05469).
T1 construct: made in house
T1 sequence (Q05469 1-1076): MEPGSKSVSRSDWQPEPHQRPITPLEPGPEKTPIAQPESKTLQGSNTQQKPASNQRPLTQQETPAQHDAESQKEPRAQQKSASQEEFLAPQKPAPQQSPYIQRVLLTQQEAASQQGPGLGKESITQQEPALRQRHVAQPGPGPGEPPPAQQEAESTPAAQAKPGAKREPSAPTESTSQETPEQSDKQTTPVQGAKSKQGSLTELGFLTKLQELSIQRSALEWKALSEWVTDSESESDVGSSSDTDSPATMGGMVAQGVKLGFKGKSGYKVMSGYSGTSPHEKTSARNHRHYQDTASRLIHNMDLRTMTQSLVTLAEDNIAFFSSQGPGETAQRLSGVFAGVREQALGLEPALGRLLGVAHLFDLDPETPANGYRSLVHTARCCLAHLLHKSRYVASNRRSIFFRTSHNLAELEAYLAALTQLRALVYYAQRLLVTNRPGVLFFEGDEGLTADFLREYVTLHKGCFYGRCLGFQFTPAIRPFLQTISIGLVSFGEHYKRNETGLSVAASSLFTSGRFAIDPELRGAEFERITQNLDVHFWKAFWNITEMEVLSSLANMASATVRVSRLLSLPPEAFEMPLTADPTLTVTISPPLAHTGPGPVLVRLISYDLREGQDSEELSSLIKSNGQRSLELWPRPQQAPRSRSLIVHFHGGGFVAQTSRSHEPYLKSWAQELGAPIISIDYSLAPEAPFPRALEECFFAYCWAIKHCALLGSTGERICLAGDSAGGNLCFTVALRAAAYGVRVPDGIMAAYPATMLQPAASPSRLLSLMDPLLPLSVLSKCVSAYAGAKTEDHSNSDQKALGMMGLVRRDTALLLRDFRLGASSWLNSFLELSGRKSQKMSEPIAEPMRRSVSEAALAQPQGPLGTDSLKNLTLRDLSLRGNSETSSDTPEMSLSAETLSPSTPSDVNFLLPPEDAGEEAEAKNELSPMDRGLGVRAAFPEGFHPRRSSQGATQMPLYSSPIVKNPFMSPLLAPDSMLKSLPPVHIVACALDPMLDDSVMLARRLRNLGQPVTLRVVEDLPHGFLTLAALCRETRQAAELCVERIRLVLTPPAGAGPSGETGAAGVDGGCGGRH
The experiment can be described thus: 3190.1: percent inhibition of hormone sensitive lipase at 10 μM (fluorochrome-labeled triacylglyceride emulsion). The format is biochemical. As to conditions: % activity relative to non-inhibited sample; 10 μM sample concentration; 30 min pre-incubation at 25° C., 120 min incubation at 37° C.; read-out: 3190.1 HSL_FL % ACTIVITY (%). The source says: Materials. The Hormone-sensitive lipase was provided by Dr. Cecilia Holm, from Lund University Sweden or produced and purified by Novo Nordisk (NN) using the reagents and protocols used by Dr. Holm. The substrates used are: ^3H-labeled triolein (TO) from Amersham, Buckinghamshire, U.K. cat No. TRA191; 5-20 Ci/mmol dissolved in toluene, triolein (Sigma, Cat. No. T-1740), fluorochrome-labeled triacylglyceride (cis-octadec-9-enoic acid 2-[12-(7-nitrobenzo[1,2,5]oxadiazol-4-ylamino)dodecanoyloxy]-1-cis-octadec-9-enoyloxymethyl-ethyl ester) prepared by Novo Nordisk (NN) by conventional methods, and 1,3-(di[^3H]-stearin), 2-(PEG-Biotin)glycerol prepared in collaboration with Amersham Pharmacia Biotech, UK and described in WO 01/073442. Phosphatidyl choline (PC) and phosphatidyl inositol (PI) are from Sigma (St Luis Mo. cat. Nos. P-3556 and P-5954 respectively). All other reagents are of commercial grade and obtained from various commercial sources.
3190.1: Assay for determination of percent inhibition of hormone sensitive lipase by compound at 10 μM sample concentration.
A lipid emulsion with fluorochrome-labeled triacylglyceride and phospholipid is used as substrate with a standard concentration of highly purified HSL (12 μg/mL initial concentration corresponding to 600 ng/mL final concentration). BSA is added as product acceptor. The transfer of the fluorochrome from the lipid phase to the water (BSA) phase changes the fluorescent properties of the fluorochrome. The changes can be monitored on a fluorimeter with an excitation wavelength of 450 nm and an emission wavelength of 545 nm.
Compound and HSL (20 μL compound, 10 μL enzyme and 70 μL PED-BSA buffer) is pre-incubated for 30 min at 25° C. before addition of substrate (100 μL). Amount of formed product is measured after 120 min incubation at 37° C.
Results are given as percent activity relative to a non-inhibited sample (no compound).
For `CN(C(=O)Oc1ccc(NC(=O)c2ccc(CN3CCOCC3)cc2)cc1)c1ccccc1` [Example 2, Methyl-phenyl-carbamic acid 4-(4-morpholin-4-ylmethyl-benzoylamino)-phenyl ester], the activity at 10 µM was determined as 4%.
In the case of `CN(C(=O)Oc1ccc(NC(=O)c2ccc(CN3CCCCC3)cc2)cc1)c1ccccc1` [Example 1, Methyl-phenyl-carbamic acid 4-(4-piperidin-1-ylmethyl-benzoylamino)-phenyl ester], the activity at 10 µM is 4%.
For the compound `CC1CCN(Cc2ccc(C(=O)Nc3ccc(OC(=O)N(C)c4ccccc4)cc3)cc2)CC1` [Example 3, Methyl-phenyl-carbamic acid 4-[4-(4-methyl-piperidin-1-ylmethyl)-benzoylamino]-phenyl ester], the activity at 10 µM came out at 2%.
